Experimental data reported in PMC10553834, “Differentiating the roles of Mycobacterium tuberculosis substrate binding proteins, FecB and FecB2, in iron uptake” (PLOS Pathogens, 2023).

Key:
Assay type in all cases: binding
FecB E272S = FecB E272S (Mycobacterium tuberculosis, UniProt O53291, E272S)
FecB Y270S = FecB Y270S (Mycobacterium tuberculosis, UniProt O53291, Y270S)
FecB R240S = FecB R240S (Mycobacterium tuberculosis, UniProt O53291, R240S)
FecB R141S = FecB R141S (Mycobacterium tuberculosis, UniProt O53291, R141S)
FecB L163R = FecB L163R (Mycobacterium tuberculosis, UniProt O53291, L163R)
FecB D332S = FecB D332S (Mycobacterium tuberculosis, UniProt O53291, D332S)
FecB Q336S = FecB Q336S (Mycobacterium tuberculosis, UniProt O53291, Q336S)
FecB Q233S = FecB Q233S (Mycobacterium tuberculosis, UniProt O53291, Q233S)

ferric-carboxymycobactin [Fe-cMB]
Kd (FecB E272S): 1730 nM | Kd (FecB Y270S): 940 nM | Kd (FecB R240S): 1100 nM | Kd (FecB R141S): 1130 nM | Kd (FecB L163R): 1160 nM | Kd (FecB D332S): 990 nM | Kd (FecB Q336S): 1400 nM | Kd (FecB Q233S): 1050 nM
